In ChEMBL document CHEMBL5046251, “Discovery of a Series of Pyrimidine Carboxamides as Inhibitors of Vanin-1” (J Med Chem, 2022):
Activity calls are given as the source filed them. No cut-off for these calls is given here.

Legend:
[1] = Renal clearance in rat at 2 mg/kg, iv assessed glomerular filtration rate; type: ADME, organism-based; conditions: in vivo
[2] = Inhibition of beagle dog vanin-1
[3] = Plasma protein binding in human assessed as unbound fraction; type: ADME, cell-free
Mus musculus [4] = test: Anti-colitis activity against DSS-induced BALB/c mouse model assessed as reduction in disease activity index at 0.5 to 50 mg/kg, po, qd administered for 10 days; type: functional, organism-based; conditions: dose 0.5-50 mg/kg, time 10.0 day
[5] = Unbound drug concentration in serum of DSS-induced BALB/c mouse colitis model at 0.5 mg/kg administered for 10 days; type: ADME, organism-based; conditions: in vivo, 240 h, time 10 day
[6] = Half life in beagle dog by LC-MS/MS analysis; conditions: in vivo
[7] = Plasma protein binding in beagle dog assessed as unbound fraction; type: ADME, cell-free, Canis lupus familiaris
[8] = Renal clearance in beagle dog assessed as glomerular filtration rate; type: ADME, Canis lupus familiaris; conditions: in vivo
Mus musculus [9] = test: Anti-colitis activity against DSS-induced BALB/c mouse model assessed as increase in body weight at 0.5 to 50 mg/kg, po, qd administered for 10 days; type: functional, organism-based; conditions: dose 0.5-50 mg/kg, time 10.0 day
[10] = Intrinsic clearance in human liver microsomes; type: ADME, Microsome
[11] = Intrinsic clearance in human hepatocytes assessed per million cells by relay assay method; type: ADME, cell-based, Hepatocyte
[12] = Volume of distribution at steady state in beagle dog by LC-MS/MS analysis; type: ADME, Canis lupus familiaris; conditions: in vivo, read-out: Vdss
[13] = Oral bioavailability in rat at 10 mg/kg measured upto 24 hrs by LC-MS/MS analysis; type: ADME, organism-based; conditions: in vivo
[14] = Unbound drug concentration in serum of DSS-induced BALB/c mouse colitis model at 1.5 mg/kg administered for 10 days; type: ADME, organism-based; conditions: in vivo, 240 h, time 10 day
[15] = Oral bioavailability in beagle dog; type: ADME, organism-based, Canis lupus familiaris; conditions: in vivo
[16] = Unbound drug concentration in serum of DSS-induced BALB/c mouse colitis model at 5 mg/kg administered for 10 days; type: ADME, organism-based; conditions: in vivo, 240 h, time 10 day
[17] = Volume of distribution in rat at 2 mg/kg, iv measured upto 24 hrs by LC-MS/MS analysis; type: ADME, organism-based; conditions: in vivo
[18] = AUC in rat at 10 mg/kg, po measured upto 24 hrs by LC-MS/MS analysis; type: ADME, organism-based; set-up: route oral, dose 10 mg/kg, time <=24; conditions: in vivo
[19] = Clearance in beagle dog by LC-MS/MS analysis; type: ADME, Canis lupus familiaris; conditions: in vivo
[20] = Intrinsic clearance in rat hepatocytes assessed per million cells; type: ADME, cell-based, Hepatocyte
CYP2A4 = test: Inhibition of CYP2A4 (unknown origin) at 3 uM relative to control; type: ADME; conditions: human
[21] = Half life in rat at 2 mg/kg, iv measured upto 24 hrs by LC-MS/MS analysis; conditions: in vivo
[22] = Clearance in rat at 2 mg/kg, iv measured upto 24 hrs by LC-MS/MS analysis; type: ADME, organism-based; conditions: in vivo
[23] = Intrinsic clearance in human hepatocytes assessed per million cells; type: ADME, cell-based, Hepatocyte
[24] = Plasma protein binding in mouse assessed as unbound fraction; type: ADME, cell-free
[25] = Plasma protein binding in Wistar han rat assessed as unbound fraction; type: ADME, cell-free
[26] = AUC in rat at 2 mg/kg, iv measured upto 24 hrs by LC-MS/MS analysis; type: ADME, organism-based; set-up: route intravenous, dose 2 mg/kg, time <=24; conditions: in vivo
Mus musculus [27] = test: In vivo inhibition of vanin-1 in DSS-induced BALB/c mouse colitis model serum administered for 10 days; type: functional, organism-based; conditions: dose 0.5-50 mg/kg, time 10.0 day
[28] = Unbound drug concentration in serum of DSS-induced BALB/c mouse colitis model at 50 mg/kg administered for 10 days; type: ADME, organism-based; conditions: in vivo, 240 h, time 10 day

## O=C(c1cnc(NCc2cnccn2)nc1)N1CCC2(CCOCC2)C1 [PFI-653]
[1]
  CL: 55%
[2]
  IC50: 0.9 nM
[3]
  fraction unbound: 0.812
Mus musculus [4]
  Activity: Active
[5]
  Drug uptake(free): 1 nM
[6]
  half-life: 3.4 h
[7]
  fraction unbound: 0.826
[8]
  CL: 22%
Mus musculus [9]
  Activity: Active
[10]
  Intrinsic clearance: < 8 µL/min/mg
[11]
  CLint: < 0.16 µL/min/1e6 cells
[12]
  Vd: 0.94 L/kg
[13]
  bioavailability: 96%
[14]
  Drug uptake(free): 61 nM
[15]
  bioavailability: 100%
[16]
  Drug uptake(free): 202 nM
[17]
  Vd: 0.84 L/kg
[18]
  AUC at 24 h: 8540 ng·h/mL
[19]
  clearance: 3.5 mL/min/kg
[20]
  CLint: < 3 µL/min/1e6 cells
CYP2A4
  inhibition at 3 µM: < 5%
[21]
  half-life at 24 h: 1 h
[22]
  clearance: 19 mL/min/kg
[23]
  CLint: < 3 µL/min/1e6 cells
[24]
  fraction unbound: 0.941
[25]
  fraction unbound: 0.812
[26]
  AUC at 24 h: 1790 ng·h/mL
Mus musculus [27]
  Activity: Dose-Dependent Effect
[28]
  Drug uptake(free): 773 nM
